Source: ChEMBL document CHEMBL5316313, “Discovery of Novel 3-Phenylpiperidine Derivatives Targeting the β-Catenin/B-Cell Lymphoma 9 Interaction as a Single Agent and in Combination with the Anti-PD-1 Antibody for the Treatment of Colorectal Cancer” (J Med Chem, 2023)
Activity calls are given as the source filed them. The rule behind the calls is not given here.

Legend:
[1] = molecular target: T1, beta-catenin-B-cell lymphoma 9 protein complex (Homo sapiens, UniProt P35222); assay: Inhibition of beta-catenin/BCL9 protein-protein interaction in Wnt-independent human HEK293 cells assessed as reduction in Axin2 expression level by qRT-PCR assay; type: cell-based
T1 sequence (P35222 whole entry): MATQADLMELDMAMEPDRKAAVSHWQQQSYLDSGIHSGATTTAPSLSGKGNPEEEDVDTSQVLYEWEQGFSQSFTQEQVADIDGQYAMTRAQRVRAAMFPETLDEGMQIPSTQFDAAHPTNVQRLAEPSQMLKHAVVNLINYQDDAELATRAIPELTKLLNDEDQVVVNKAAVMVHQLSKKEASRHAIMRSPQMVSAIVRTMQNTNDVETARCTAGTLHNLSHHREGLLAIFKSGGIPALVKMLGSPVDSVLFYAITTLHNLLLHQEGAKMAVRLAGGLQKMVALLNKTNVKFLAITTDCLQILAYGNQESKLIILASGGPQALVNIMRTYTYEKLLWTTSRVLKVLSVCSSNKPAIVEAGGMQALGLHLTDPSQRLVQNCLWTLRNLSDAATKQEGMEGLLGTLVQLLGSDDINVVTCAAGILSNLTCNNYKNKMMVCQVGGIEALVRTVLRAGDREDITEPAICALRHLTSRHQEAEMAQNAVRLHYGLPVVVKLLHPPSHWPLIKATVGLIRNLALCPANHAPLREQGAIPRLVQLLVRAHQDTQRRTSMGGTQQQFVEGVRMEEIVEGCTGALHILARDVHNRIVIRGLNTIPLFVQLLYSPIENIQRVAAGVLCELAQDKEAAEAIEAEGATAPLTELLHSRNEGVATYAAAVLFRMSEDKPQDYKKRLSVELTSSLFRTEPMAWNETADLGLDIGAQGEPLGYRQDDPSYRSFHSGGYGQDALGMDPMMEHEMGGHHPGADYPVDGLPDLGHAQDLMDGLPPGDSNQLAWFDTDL
T1 sequence (O00512 whole entry): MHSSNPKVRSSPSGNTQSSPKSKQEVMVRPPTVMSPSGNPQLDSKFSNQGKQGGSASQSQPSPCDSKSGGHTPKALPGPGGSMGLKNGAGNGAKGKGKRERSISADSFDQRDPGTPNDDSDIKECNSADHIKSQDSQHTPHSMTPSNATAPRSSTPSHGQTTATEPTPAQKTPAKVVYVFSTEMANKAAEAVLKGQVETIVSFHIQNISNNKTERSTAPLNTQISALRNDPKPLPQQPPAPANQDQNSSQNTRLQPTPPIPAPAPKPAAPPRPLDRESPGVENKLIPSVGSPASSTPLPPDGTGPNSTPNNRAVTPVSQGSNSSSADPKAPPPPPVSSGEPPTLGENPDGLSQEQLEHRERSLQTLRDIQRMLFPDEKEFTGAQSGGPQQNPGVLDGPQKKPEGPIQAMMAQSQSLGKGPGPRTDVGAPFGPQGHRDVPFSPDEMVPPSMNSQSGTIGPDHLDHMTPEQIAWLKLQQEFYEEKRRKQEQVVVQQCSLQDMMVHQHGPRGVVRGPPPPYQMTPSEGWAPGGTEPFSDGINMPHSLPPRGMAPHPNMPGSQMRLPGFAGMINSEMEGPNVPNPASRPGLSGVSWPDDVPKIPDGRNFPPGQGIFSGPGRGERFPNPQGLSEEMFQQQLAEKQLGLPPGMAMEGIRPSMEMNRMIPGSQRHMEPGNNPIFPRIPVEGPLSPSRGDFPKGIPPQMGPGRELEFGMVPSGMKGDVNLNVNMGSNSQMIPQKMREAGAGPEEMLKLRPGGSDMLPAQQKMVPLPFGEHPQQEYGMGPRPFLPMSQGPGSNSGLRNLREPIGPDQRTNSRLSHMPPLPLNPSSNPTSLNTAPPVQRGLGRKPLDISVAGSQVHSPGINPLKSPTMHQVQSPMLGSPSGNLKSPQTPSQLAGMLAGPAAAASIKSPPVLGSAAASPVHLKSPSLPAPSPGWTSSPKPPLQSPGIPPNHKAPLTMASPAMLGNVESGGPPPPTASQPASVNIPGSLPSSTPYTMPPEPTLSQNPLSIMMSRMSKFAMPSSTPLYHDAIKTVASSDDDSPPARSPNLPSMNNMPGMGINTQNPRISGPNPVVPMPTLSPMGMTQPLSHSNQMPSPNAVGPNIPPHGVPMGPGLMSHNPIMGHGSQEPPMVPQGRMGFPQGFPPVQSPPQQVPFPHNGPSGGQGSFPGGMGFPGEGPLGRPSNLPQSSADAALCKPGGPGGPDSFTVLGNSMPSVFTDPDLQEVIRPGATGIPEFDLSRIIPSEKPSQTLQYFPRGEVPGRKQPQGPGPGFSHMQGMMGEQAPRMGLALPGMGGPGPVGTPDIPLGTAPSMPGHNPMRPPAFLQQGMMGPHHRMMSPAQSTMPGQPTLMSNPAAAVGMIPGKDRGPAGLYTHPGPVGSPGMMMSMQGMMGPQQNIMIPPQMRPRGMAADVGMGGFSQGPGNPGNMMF

[2] = molecular target: T1, beta-catenin-B-cell lymphoma 9 protein complex; assay: Inhibition of beta-catenin/BCL9 protein-protein interaction in Wnt-dependent human SW480 cells assessed as reduction in Axin2 expression level by qRT-PCR assay; type: cell-based
HCT-116 [3] = assay: Induction of apoptosis in Wnt-dependent human HCT-116 cells assessed as necrotic cells at 20 uM incubated for 24 hrs by Annexin V-Alexa Fluor 647/PI staining based flow cytomtery (Rvb=1.47%); type: functional
[4] = Toxicity in BALB/c mouse xenografted with mouse CT26 cells assessed as pathological changes in bone marrow at 30 mg/kg, ip QD by hematoxylin and eosin staining based microscopic analysis; type: organism-based; settings: in vivo
[5] = Microsomal stability in human liver microsomes assessed as half life at […] and measured upto 60 mins by LC-MS/MS analysis; type: ADME, Microsome
[6] = Toxicity in BALB/c mouse xenografted with mouse CT26 cells assessed as pathological changes in lung at 30 mg/kg, ip QD by hematoxylin and eosin staining based microscopic analysis; type: organism-based; settings: in vivo
CT26 [7] = assay: Induction of apoptosis in Wnt-dependent mouse CT26 cells assessed as early apoptotic cells at 10 uM incubated for 24 hrs by Annexin V-Alexa Fluor 647/PI staining based flow cytomtery (Rvb=18.3%); type: functional
[8] = Toxicity in BALB/c mouse xenografted with mouse CT26 cells assessed as pathological changes in heart at 30 mg/kg, ip QD by hematoxylin and eosin staining based microscopic analysis; type: organism-based; settings: in vivo
CT26 [9] = assay: Antitumor activity in mouse CT26 cells xenografted in BALB/c mouse assessed as increase in GZMB mRNA expression level in tumor at 30 mg/kg, ip QD by qRT-PCR analysis; type: functional, organism-based
HCT-116 [10] = assay: Antiproliferative activity against Wnt-dependent human HCT-116 cells assessed as cell growth inhibition incubated for 48 hrs by CellTiter-Glo assay; type: functional, cell-based
CT26 [11] = settings: Mus musculus, BALB/c, dose 30.0 mg/kg, route ip
Description: In vivo inhibition of Wnt signaling pathway in mouse CT26 cells implanted in BALB/c mouse assessed as reduction in Cd44 mRNA expression level in tumor at 30 mg/kg, ip QD by qRT-PCR analysis

CT26 [12] = settings: Mus musculus, BALB/c, dose 30.0 mg/kg, route ip; remark: listed apart in the source
Description: In vivo inhibition of Wnt signaling pathway in mouse CT26 cells implanted in BALB/c mouse assessed as reduction in Lgr5 mRNA expression level in tumor at 30 mg/kg, ip QD by qRT-PCR analysis

| Structure (SMILES) | IC50 [1] | IC50 [2] | Activity (HCT-116 [3]) | Activity [4] | half-life [5] | Activity [6] | Activity (CT26 [7]) | Activity [8] | Activity (CT26 [9]) | Activity (HCT-116 [10]) | inhibition (CT26 [11]) | inhibition (CT26 [12]) |
| --- | --- | --- | --- | --- | --- | --- | --- | --- | --- | --- | --- | --- |
| O=C1[C@H](Cc2ccc(O)cc2)N2C(=O)CCN(C(=O)NCc3ccccc3)[C@H]2CN1Cc1cccc2ccccc12 | 38.3 µM | 10.6 µM |  |  |  |  |  |  |  |  |  |  |
| CC(C)c1ccc(-c2cccc(S(=O)(=O)N3CCCC(c4cccc(OC(C)(C)C(=O)NS(=O)(=O)c5ccc(C(F)(F)F)cc5)c4)C3)c2)cc1 (configuration not stated) |  |  | 3.22% | Non-Toxic | 32.1 min | Non-Toxic | 24% | Non-Toxic | Active | Active | Active | Active |
